US20250197399A1, “COMPOUNDS, COMPOSITIONS, AND METHODS” (Tenvie Therapeutics, Inc., priority 2022, published 2025)
Read-outs that look alike come from different tables or passages of the source.

Tested on: NLRP3
Experiment: IL-1β secretion assay in PMA-differentiated, LPS/nigericin-stimulated THP-1 cells (ELISA)
Assay type: cell-based
Details: 25 ng/mL LPS then nigericin, IL-1β in supernatant
Procedure: Compounds as provided herein were tested in the following assay. Cell culture medium employed contained RPMI 1640 medium (89%), FBS (10%), Pen/Strep (1%), and 2-mercaptoethanol (0.05 mM). Freezing medium was made up of 90% FBS and 10% DMSO. THP-1 cells were removed from the liquid nitrogen and placed into a 37° C. water bath to thaw, until signs of ice dissipated. The cells were then added to 9 mL of warm cell culture medium and centrifuged for 5 minutes at 1000 rpm. The supernatant was discarded, and the cells were resuspended in new cell culture medium. THP-1 cells were then split and cultured in the cell culture medium, being passaged every 2-3 days with the cell density will be maintained between 5×10^5 and 1.5×10^6 viable cells/mL.
PMA was dissolved in DMSO to make a stock solution at 5 mg/ml and stored in 10 μl aliquots at −20° C. for single use. PMA is added to normal growth medium. LPS was diluted with 1 mL of water solution to provide a 1 mg/mL stock solution and stored in 15 μL aliquots at −20° C. for single use. Nigericin is diluted in ice cold 100% ethanol to 5 mg/ml (6.7 mM) and stored in 75 μL aliquots at −20° C. for single use. Serum-free media contains RPMI 1640 medium (99%), Pen/Strep (1%), and 2-mercaptoethanol (0.05 mM). The two control conditions used to qualify and normalize test compound dose-response curves were as follows: High Control=25 ng/mL LPS, […], 0.5% DMSO, Low Control=25 ng/mL, LPS, 0.5% DMSO.
THP-1 cells were diluted to provide a suspension at a concentration of 1.0×10^6 cells/mL with the total volume of suspension required to enable the desired number of assay plates. The growth media was supplemented with PMA (5 ng/mL final concentration) and the cells were incubated at 37° C. under a humidified atmosphere of 5% CO2 for 40 h.
All media was carefully aspirated from each culture flask. The cells were washed carefully with 1×DPBS. The cells were then briefly digested with trypsin LE for 5 minutes at 23° C. and immediately resuspended in cell growth media. After resuspension, the cells were centrifuged at 1000 rpm for 3 minutes and the supernatant was discarded. The cells were resuspended in DPBS and once again centrifuged at 1000 rpm for 5 minutes. The supernatant was discarded and the cell pellet was resuspended in serum-free media supplemented with LPS (25 ng/mL final concentration) to enable the distribution of 30K THP-1 cells within 45 μL of media into each well of 384-well PDL-coated plates. The 384-well plates were then incubated at 37° C. under a humidified atmosphere of 5% CO2 for 2 h. Following this period, test compounds were dispensed by Tecan across the desired concentration range with all wells normalized to a final 0.5% DMSO concentration. The plates were then then incubated at 37° C. under a humidified atmosphere of 5% CO2 for 1 h. Following this period, 5 μL of the 5 mg/mL nigericin stock solution was added to each of the appropriate wells and plates were centrifuged at 1000 rpm for 30 seconds. The plates were the immediately reintroduced to the incubator at 37° C. under a humidified atmosphere of 5% CO2 for 2 h. After this time, 35 μL/well of supernatant was collected and transferred into v-bottom plate and centrifuged at 1000 rpm for 1 minute. These supernatant aliquots were analyzed using an IL-Iβ detection kit as described below. If needed, the test samples could be snap frozen and stored at −80° C. until analyzed.
To prepare each ELISA plate, capture antibody (mAb Mt175) was diluted with PBS to a final concentration of […] and then 20 μL of this solution was added to each well of the ELISA plate. Each plate was allowed to incubate overnight at 4° C. The next day, the capture antibody solution was removed and discarded. Each ELISA plate was washed 4 times with PBST followed by the addition of 25 µL/well of blocking buffer (Licor-927-40010) supplemented with 0.1% Tween 20. Each ELISA plate was then allowed to incubate for 1 hour at 23° C. […]

[1] = Homo sapiens, THP-1, THP-1 cells, read-out: Activity (IC50 class)
[2] = THP-1 cells, read-out: Activity
[3] = Homo sapiens, THP-1, THP-1 cells, read-out: Activity
[4] = THP-1 cells, read-out: Activity (IC50 class)

SMILES | IC50 [1] [nM] | IC50 [2] [nM] | IC50 [3] [nM] | IC50 [4] [nM]
O=C(CN1CC2(CC2(F)F)c2cc(C3CC3)ccc2C1=O)Nc1ncc(F)cn1 (single isomer, unassigned) [Example 28, N-(5-fluoropyrimidin-2-yl)-2-[6-cyclopropyl-1′,1′-difluoro-1-oxospiro[3H-isoquinoline-4,2′-cyclopropane]-2-yl]acetamide] | 1000 to 10000 | 5730 | – | –
O=C(CN1CC2(CC2(F)F)c2cc(C(F)(F)F)ccc2C1=O)Nc1ncc(F)cn1 (single isomer, unassigned) [Example 40, N-(5-fluoropyrimidin-2-yl)-2-[1′,1′-difluoro-6-(trifluoromethyl)-1-oxospiro[3H-isoquinoline-4,2′-cyclopropane]-2-yl]acetamide] | 1000 to 10000 | 9370 | – | –
Cc1cnc(NC(=O)CN2C[C@]3(C[C@H]3F)c3c(ccc(Cl)c3F)C2=O)nc1 (single isomer, unassigned) [Example 44, 2-[(2′s,4r)-6-chloro-2′,5-difluoro-1-oxospiro[3H-isoquinoline-4,1′-cyclopropane]-2-yl]-N-(5-methylpyrimidin-2-yl)acetamide] | < 1000 | – | 113 | –
O=C(CN1C[C@]2(C[C@H]2F)c2c(ccc(Cl)c2F)C1=O)Nc1ncc(Cl)cn1 (single isomer, unassigned) [Example 43, 2-[(2′s,4r)-6-chloro-2′,5-difluoro-1-oxospiro[3H-isoquinoline-4,1′-cyclopropane]-2-yl]-N-(5-chloropyrimidin-2-yl)acetamide] | < 1000 | – | 51 | –
O=C(CN1C[C@]2(C[C@H]2F)c2cc(C3(F)CC3)ccc2C1=O)Nc1ncc(C(F)(F)F)cn1 [Example 1, 2-[(2′R,4S)-2′-fluoro-6-(1-fluorocyclopropyl)-1-oxospiro[3H-isoquinoline-4,1′-cyclopropane]-2-yl]-N-(5-(trifluoromethyl)pyrimidin-2-yl)acetamide] | < 1000 | – | 24 | –
O=C(CN1C[C@]2(C[C@H]2F)c2cc(C(F)(F)F)ccc2C1=O)Nc1nc2ccccn2n1 (single isomer, unassigned) [Example 50, 2-[(2′s,4r)-2′-fluoro-1-oxo-6-(trifluoromethyl)spiro[3H-isoquinoline-4,1′-cyclopropane]-2-yl]-N-([1,2,4]triazolo[1,5-a]pyridin-2-yl)acetamide] | – | 184 | – | < 1000
O=C(CN1CC2(CC2(F)F)c2c(ccc(C(F)(F)F)c2F)C1=O)Nc1ncc(Cl)cn1 (single isomer, unassigned) [Example 14, N-(5-chloropyrimidin-2-yl)-2-[1′,1′,5-trifluoro-6-(trifluoromethyl)-1-oxospiro[3H-isoquinoline-4,2′-cyclopropane]-2-yl]acetamide] | – | – | – | > 10000
O=C(CN1CC2(CC2(F)F)c2cc(Br)ccc2C1=O)Nc1ncc(Cl)cn1 (single isomer, unassigned) [Example 17, N-(5-chloropyrimidin-2-yl)-2-[6-bromo-1′,1′-difluoro-1-oxospiro[3H-isoquinoline-4,2′-cyclopropane]-2-yl]acetamide] | – | 28 | – | < 1000
C[C@]1(O)C[C@@H](NC(=O)CN2CC3(CC3(F)F)c3cc(Br)ccc3C2=O)C1 (single isomer, unassigned) [Example 21, N-(3-cis-hydroxy-3-methylcyclobutyl)-2-[6-bromo-1′,1′-difluoro-1-oxospiro[3H-isoquinoline-4,2′-cyclopropane]-2-yl]acetamide] | – | 58 | – | < 1000
O=C(CN1CC(C(F)(F)F)c2cc(I)ccc2C1=O)Nc1ncc(Cl)cn1 (stereo not shown) [Example 7, N-(5-chloropyrimidin-2-yl)-2-(6-iodo-1-oxo-4-(trifluoromethyl)-3,4-dihydroisoquinolin-2(1H)-yl)acetamide] | < 1000 | – | 17 | –
C[C@]1(O)C[C@@H](NC(=O)CN2CC3(CC3(F)F)c3cc(Br)ccc3C2=O)C1 (single isomer, unassigned) [Example 20, N-(3-cis-hydroxy-3-methylcyclobutyl)-2-[6-bromo-1′,1′-difluoro-1-oxospiro[3H-isoquinoline-4,2′-cyclopropane]-2-yl]acetamide] | – | 12900 | – | > 10000
O=C(CN1CC2(CC2)c2cc(Br)ccc2C1=O)NC1CC(O)(C2CC2)C1 (single isomer, unassigned) [Example 57, 2-(6-bromo-1-oxospiro[3H-isoquinoline-4,1′-cyclopropane]-2-yl)-N-(3-cyclopropyl-3-hydroxycyclobutyl)acetamide] | – | 11100 | – | > 10000
O=C(CN1CC2(CC2(F)F)c2c(ccc(C3CC3)c2F)C1=O)Nc1ncc(Cl)cn1 (single isomer, unassigned) [Example 34, N-(5-chloropyrimidin-2-yl)-2-[6-cyclopropyl-1′,1′,5-trifluoro-1-oxospiro[3H-isoquinoline-4,2′-cyclopropane]-2-yl]acetamide] | 1000 to 10000 | 15600 | – | –
O=C(CN1C[C@]2(C[C@H]2F)c2cc(C(F)(F)F)ccc2C1=O)Nc1nc2ccccn2n1 (single isomer, unassigned) [Example 49, 2-[(2′s,4r)-2′-fluoro-1-oxo-6-(trifluoromethyl)spiro[3H-isoquinoline-4,1′-cyclopropane]-2-yl]-N-([1,2,4]triazolo[1,5-a]pyridin-2-yl)acetamide] | 1000 to 10000 | 1960 | – | –
Cc1cnc(NC(=O)CN2CC3(CC3(F)F)c3cc(Br)ccc3C2=O)nc1 (single isomer, unassigned) [Example 19, N-(5-methylpyrimidin-2-yl)-2-[6-bromo-1′,1′-difluoro-1-oxospiro[3H-isoquinoline-4,2′-cyclopropane]-2-yl]acetamide] | – | 65 | – | < 1000
C[C@]1(O)C[C@@H](NC(=O)CN2CC3(CC3(F)F)c3cc(C(F)(F)F)ccc3C2=O)C1 (single isomer, unassigned) [Example 53, 2-[1′,1′-difluoro-1-oxo-6-(trifluoromethyl)spiro[3H-isoquinoline-4,2′-cyclopropane]-2-yl]-N-(3-cis-hydroxy-3-methylcyclobutyl)acetamide] | – | 472 | – | < 1000
O=C(CN1CC2(CC2)c2c(ccc(Br)c2F)C1=O)Nc1ncc2cn[nH]c2n1 [Example 46, 2-(6-bromo-5-fluoro-1-oxospiro[3H-isoquinoline-4,1′-cyclopropane]-2-yl)-N-(1H-pyrazolo[3,4-d]pyrimidin-6-yl)acetamide] | < 1000 | – | 38 | –
O=C(CN1C[C@@]2(C[C@@H]2F)c2c(ccc(C(F)(F)F)c2F)C1=O)Nc1ncc(Cl)cn1 (single isomer, unassigned) [Example 12, 2-[(2′s,4r)-2′,5-difluoro-1-oxo-6-(trifluoromethyl)spiro[3H-isoquinoline-4,1′-cyclopropane]-2-yl]-N-(5-chloropyrimidin-2-yl)acetamide] | < 1000 | 54 | – | –
O=C(CN1CC2(CC2(F)F)c2cc(C3CC3)ccc2C1=O)Nc1ncc(F)cn1 (single isomer, unassigned) [Example 29, N-(5-fluoropyrimidin-2-yl)-2-[6-cyclopropyl-1′,1′-difluoro-1-oxospiro[3H-isoquinoline-4,2′-cyclopropane]-2-yl]acetamide] | – | 86 | – | < 1000
